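Cells were grown in 96-well plates and exposed to each compound for 48 hours at five concentrations; endpoints were interpolated linearly between bracketing concentrations, or set to the highest concentration if not reached. Abbreviation: GI50, concentration required for 50% inhibition of growth.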 Activity calls are given as the source filed them. Cut-off read from the data, not from the text of the source: active = GI50 up to about 1.1 µM and inactive = higher.
What was measured:
Assay in all cases: inhibition of tumour cell growth, NCI panel, 48 h
KM12 = tested on: KM12
SF-295 = tested on: SF-295
HT-29 = tested on: HT-29
SK-OV-3 = tested on: SK-OV-3
PC-3 = tested on: PC-3
NCI-H460 = tested on: NCI-H460
UACC-62 = tested on: UACC-62
MOLT-4 = tested on: MOLT-4
SN12C = tested on: SN12C
K562 = tested on: K562
MDA-MB-231 = tested on: MDA-MB-231
SNB-19 = tested on: SNB-19
HCT-15 = tested on: HCT-15
RPMI-8226 = tested on: RPMI-8226
OVCAR-4 = tested on: OVCAR-4
HL-60 = tested on: HL-60
HOP-62 = tested on: HOP-62
UACC-257 = tested on: UACC-257
TK-10 = tested on: TK-10
EKVX = tested on: EKVX
SW-620 = tested on: SW-620
IGROV-1 = tested on: IGROV-1
NCI-H226 = tested on: NCI-H226
MDA-N = tested on: MDA-N
A549 = tested on: A549
Malme-3M = tested on: Malme-3M
OVCAR-3 = tested on: OVCAR-3
NCI/ADR-RES = tested on: NCI/ADR-RES
ACHN = tested on: ACHN
NCI-H23 = tested on: NCI-H23
OVCAR-8 = tested on: OVCAR-8
786-0 = tested on: 786-0
COLO 205 = tested on: COLO 205
OVCAR-5 = tested on: OVCAR-5
M14 = tested on: M14
SK-MEL-2 = tested on: SK-MEL-2
RXF 393 = tested on: RXF 393
SNB-75 = tested on: SNB-75
SK-MEL-28 = tested on: SK-MEL-28
U-251 = tested on: U-251
Hs-578T = tested on: Hs-578T
SK-MEL-5 = tested on: SK-MEL-5
UO-31 = tested on: UO-31
HCT-116 = tested on: HCT-116
BT-549 = tested on: BT-549
MDA-MB-435 = tested on: MDA-MB-435
CCRF-CEM = tested on: CCRF-CEM
A498 = tested on: A498
DU-145 = tested on: DU-145
CAKI-1 = tested on: CAKI-1
SF-268 = tested on: SF-268
NCI-H522 = tested on: NCI-H522
MCF7 = tested on: MCF7
T47D = tested on: T47D
HOP-92 = tested on: HOP-92
HCC 2998 = tested on: HCC 2998
LOX IMVI = tested on: LOX IMVI
SF-539 = tested on: SF-539
SR = tested on: SR

`c1ccc2c(c1)N=C(NC1CCCCC1)CCN2` was tested, and the GI50 (KM12) was > 100 µM (inactive), the GI50 (SF-295) was > 100 µM (inactive) and the GI50 (HT-29) was 77.6 µM (inactive). For the same compound, the GI50 (SK-OV-3) was > 100 µM (inactive), the GI50 (PC-3) was > 100 µM (inactive) and the GI50 (NCI-H460) was > 100 µM (inactive). The GI50 (UACC-62) was > 100 µM (inactive), the GI50 (MOLT-4) was 63.2 µM (inactive) and the GI50 (SN12C) was > 100 µM (inactive). The GI50 (K562) was 81.3 µM (inactive), the GI50 (MDA-MB-231) was > 100 µM (inactive) and the GI50 (SNB-19) was > 100 µM (inactive). For the same compound, the GI50 (HCT-15) was greater than 100 µM, the GI50 (RPMI-8226) was > 100 µM (inactive) and the GI50 (OVCAR-4) was > 100 µM (inactive). For the same compound, the GI50 (HL-60) was > 100 µM (inactive), the GI50 (HOP-62) was > 100 µM (inactive) and the GI50 (UACC-257) was > 100 µM (inactive). The GI50 (TK-10) was > 100 µM (inactive), the GI50 (EKVX) was > 100 µM (inactive) and the GI50 (SW-620) was > 100 µM (inactive). The GI50 (IGROV-1) was 33.1 µM (inactive), the GI50 (NCI-H226) was > 100 µM (inactive) and the GI50 (MDA-N) was > 100 µM (inactive). The GI50 (A549) was > 100 µM (inactive), the GI50 (Malme-3M) was > 100 µM (inactive) and the GI50 (OVCAR-3) was > 100 µM (inactive). The GI50 (NCI/ADR-RES) was > 100 µM (inactive), the GI50 (ACHN) was > 100 µM (inactive) and the GI50 (NCI-H23) was > 100 µM (inactive). The GI50 (OVCAR-8) was > 100 µM (inactive), the GI50 (786-0) was > 100 µM (inactive) and the GI50 (COLO 205) was > 100 µM (inactive). The GI50 (OVCAR-5) was > 100 µM (inactive), the GI50 (M14) was > 100 µM (inactive) and the GI50 (SK-MEL-2) was > 100 µM (inactive). The GI50 (RXF 393) was > 100 µM (inactive), the GI50 (SNB-75) was 22 µM (inactive) and the GI50 (SK-MEL-28) was > 100 µM (inactive). The GI50 (U-251) was > 100 µM (inactive), the GI50 (Hs-578T) was > 100 µM (inactive) and the GI50 (SK-MEL-5) was > 100 µM (inactive). The GI50 (UO-31) was > 100 µM (inactive), the GI50 (HCT-116) was > 100 µM (inactive) and the GI50 (BT-549) was > 100 µM (inactive). For the same compound, the GI50 (MDA-MB-435) was > 100 µM (inactive), the GI50 (CCRF-CEM) was > 100 µM (inactive) and the GI50 (A498) was > 100 µM (inactive). The GI50 (DU-145) was > 100 µM (inactive), the GI50 (CAKI-1) was > 100 µM (inactive) and the GI50 (SF-268) was > 100 µM (inactive). The GI50 (NCI-H522) was > 100 µM (inactive).
With `c1ccc(CNC2CC(NCc3ccccn3)CC(NCc3ccccn3)C2)nc1` (configuration not stated) the GI50 (KM12) was 2.7 µM (inactive), the GI50 (MCF7) was 3.5 µM (inactive) and the GI50 (SF-295) was 6.21 µM (inactive). For the same compound, the GI50 (SK-OV-3) was 4.46 µM (inactive), the GI50 (NCI-H460) was 5.15 µM (inactive) and the GI50 (MOLT-4) was 3.39 µM (inactive). The GI50 (SN12C) was 5.22 µM (inactive), the GI50 (T47D) was 5.66 µM (inactive) and the GI50 (HOP-92) was 4.67 µM (inactive). The GI50 (HCT-15) was 4.72 µM, the GI50 (OVCAR-4) was 4.13 µM (inactive) and the GI50 (HOP-62) was 6.89 µM (inactive). For the same compound, the GI50 (UACC-257) was 4.53 µM (inactive), the GI50 (TK-10) was 3.45 µM (inactive) and the GI50 (SW-620) was 6.61 µM (inactive). For the same compound, the GI50 (IGROV-1) was 4.38 µM (inactive), the GI50 (NCI-H226) was 3.32 µM (inactive) and the GI50 (MDA-N) was 4.47 µM (inactive). The GI50 (A549) was 2.61 µM (inactive), the GI50 (Malme-3M) was 3.52 µM (inactive) and the GI50 (OVCAR-3) was 4.08 µM (inactive). The GI50 (ACHN) was 9.51 µM (inactive), the GI50 (786-0) was 2.38 µM (inactive) and the GI50 (COLO 205) was 1.09 µM (active). The GI50 (SK-MEL-2) was 5.11 µM (inactive), the GI50 (SNB-75) was 4.27 µM (inactive) and the GI50 (SK-MEL-28) was 3.08 µM (inactive). The GI50 (Hs-578T) was 7.66 µM (inactive), the GI50 (SK-MEL-5) was 3.54 µM (inactive) and the GI50 (UO-31) was > 25 µM (inactive). The GI50 (HCT-116) was 3.1 µM (inactive), the GI50 (BT-549) was 5.27 µM (inactive) and the GI50 (MDA-MB-435) was 4.5 µM (inactive). For the same compound, the GI50 (CCRF-CEM) was 2.61 µM (inactive), the GI50 (A498) was 3.05 µM (inactive) and the GI50 (DU-145) was 4.73 µM (inactive). For the same compound, the GI50 (SF-268) was 5 µM (inactive) and the GI50 (NCI-H522) was 4.6 µM (inactive).
For `Cc1cn(C(C)OCCN2C(=O)c3ccccc3C2=O)c(=O)[nH]c1=O` (configuration not stated), the GI50 (KM12) was > 100 µM (inactive), the GI50 (MCF7) was > 100 µM (inactive) and the GI50 (SF-295) was > 100 µM (inactive). For the same compound, the GI50 (HT-29) was > 100 µM (inactive), the GI50 (PC-3) was > 100 µM (inactive) and the GI50 (NCI-H460) was > 100 µM (inactive). The GI50 (UACC-62) was > 100 µM (inactive), the GI50 (MOLT-4) was > 100 µM (inactive) and the GI50 (SN12C) was > 100 µM (inactive). For the same compound, the GI50 (T47D) was > 100 µM (inactive), the GI50 (HCC 2998) was > 100 µM (inactive) and the GI50 (K562) was > 100 µM (inactive). For the same compound, the GI50 (HOP-92) was > 100 µM (inactive), the GI50 (MDA-MB-231) was > 100 µM (inactive) and the GI50 (SNB-19) was > 100 µM (inactive). For the same compound, the GI50 (HCT-15) was greater than 100 µM, the GI50 (RPMI-8226) was > 100 µM (inactive) and the GI50 (OVCAR-4) was > 100 µM (inactive). The GI50 (HOP-62) was > 100 µM (inactive), the GI50 (UACC-257) was > 100 µM (inactive) and the GI50 (EKVX) was > 100 µM (inactive). The GI50 (SW-620) was > 100 µM (inactive), the GI50 (IGROV-1) was > 100 µM (inactive) and the GI50 (NCI-H226) was > 100 µM (inactive). For the same compound, the GI50 (MDA-N) was > 100 µM (inactive), the GI50 (A549) was > 100 µM (inactive) and the GI50 (OVCAR-3) was > 100 µM (inactive). The GI50 (NCI/ADR-RES) was > 100 µM (inactive), the GI50 (ACHN) was > 100 µM (inactive) and the GI50 (NCI-H23) was > 100 µM (inactive). The GI50 (LOX IMVI) was > 100 µM (inactive), the GI50 (OVCAR-8) was > 100 µM (inactive) and the GI50 (786-0) was > 100 µM (inactive). For the same compound, the GI50 (COLO 205) was > 100 µM (inactive), the GI50 (OVCAR-5) was > 100 µM (inactive) and the GI50 (M14) was > 100 µM (inactive). For the same compound, the GI50 (SK-MEL-2) was > 100 µM (inactive), the GI50 (RXF 393) was > 100 µM (inactive) and the GI50 (SNB-75) was > 100 µM (inactive). For the same compound, the GI50 (SK-MEL-28) was > 100 µM (inactive), the GI50 (SF-539) was > 100 µM (inactive) and the GI50 (SR) was > 100 µM (inactive). For the same compound, the GI50 (U-251) was > 100 µM (inactive), the GI50 (SK-MEL-5) was > 100 µM (inactive) and the GI50 (UO-31) was > 100 µM (inactive). For the same compound, the GI50 (HCT-116) was > 100 µM (inactive), the GI50 (BT-549) was > 100 µM (inactive) and the GI50 (MDA-MB-435) was > 100 µM (inactive). The GI50 (CCRF-CEM) was > 100 µM (inactive), the GI50 (A498) was > 100 µM (inactive) and the GI50 (DU-145) was > 100 µM (inactive). The GI50 (CAKI-1) was > 100 µM (inactive).
